From patent US20230127906A1, “FORMULATIONS FOR EXTENDING LIFESPAN AND HEALTHSPAN” (Buck Institute for Research on Aging, priority 2017, published 2023) come the findings set out here.

The test system of one test is IMR-90 fibroblasts. The test is described as follows: Cell senescence assay, irradiated cells, β-galactosidase. The conditions noted are these: cells pre-treated prior to irradiation, FIG. 12. Type of test: cell-based. The protocol: To measure the effects of Ca-AKG on cell senescence, IMR-90 fibroblasts in culture were exposed to gamma-irradiation either after pretreatment with AKG or prior to (post) treatment with Ca-AKG. Cell senescence was measured by β-Galactosidase fluorescence.

A further test has as its system C57BL/6J mice. The test is described as follows: 31-item clinical frailty index in aged mice (total score and individual metrics). Format: in vivo. Conditions: for alopecia scores (hair loss): four month treatment starting at 18 months of age, FIG. 35; for piloerection: four month treatment, FIG. 37. The text has this: C57BL/6J mice of both sexes are aged in group caging in an approved animal facility. Mice are maintained on a 12-hour light/dark cycle, with free access to food and water. In general, initiation of interventions occurs in mice after 12 months of age and is maintained throughout the lifespan of the mice. However, short term or periodic interventional strategies may also be tested.
Mice are randomly assigned to either treatment or control group, and administered compositions of active agents or placebo (control) in food for a sufficient treatment period to observe effects on frailty characteristics.
Mice are periodically evaluated on the 31-item clinical frailty index previously described herein. This was first reported by Whitehead et al. (Journals of Gerontology: BIOLOGICAL SCIENCES, 69:621-632; 2014). This has been used in studies recently as a valuable metric of mouse frailty that involves non-invasive scoring ideal for longitudinal studies and corresponds well with the onset of human frailty (Rockwood et al., Scientific Reports, 7, 43068, 2017).
The 31 point metric for assessment of animal frailty is included in the following table:
For all individual frailty metrics shown, a similar strategy was used to assess frailty score. Using a double blind method, scorers were asked to assess the relative score of each animal either as 0 (healthy), 0.5 (moderately unhealthy) and 1 (unhealthy). For total frailty, all 31 metrics are added and divided by 31. For cohort 2, we report the total frailty score simply as the sum of all 31 metrics without normalization.
Loss of fur color and appearance of grey hair is used interchangeably.
Alopecia or hair loss is used interchangeably.
Kyphosis is a measure of exaggerated outward curvature of the lower cervical/thoracic vertebral column, and can reflect either loss of bone density or increased muscle weakness.
Tremors are a measure of involuntary shaking at rest or during movement. Dermatitis is a routine occurrence in aging C57/B16 mice.
Piloerection is defined as involuntary hair bristling and can be thought of similarly to “goose bumps.” This increases with age and can be triggered by coldness, reflecting an inability of the mice to maintain body temperature.
Mice are randomly assigned to either treatment or control group, and administered compositions comprising Ca-AKG or placebo in food for a sufficient treatment period to observe effects on frailty characteristics.
Mice are periodically evaluated on the 31-item clinical frailty index previously described herein.

In the next test the test system is inflammatory cytokines. The test is described as follows: Inflammatory cytokine levels in aged mice. Format: in vivo. Conditions: three month treatment starting at 18 months of age, animals at 21 months, Cohort 2, FIG. 24.

Entries after “also recorded” stand apart in the source; their conditions may differ.

In the case of `O=C([O-])CCC(=O)C(=O)[O-].[Ca+2]` [Ca-AKG, calcium α-ketoglutarate], the “cell senescence, senescence-associated β-galactosidase (beta gal)” value in the test on IMR-90 fibroblasts is “protected cells from irradiation-induced senescence; also recorded: decreases relative to control”. In addition, in the test on C57BL/6J mice (female mice), the “alopecia scores (hair loss)” value is “neither Ca-AKG nor RP had significant effects on their own” and the piloerection result is “Neither compound alone had an effect”. Further, in the test with C57BL/6J mice (female mice, measured at 23 months of life, Cohort 1, FIG. 18), the grey hair entry is given as “reduction in grey hair”. Also, the hair loss entry in the test on C57BL/6J mice (relative to control mice, Cohort 1, FIG. 20, 21) is recorded as “reduced hair loss; also recorded: reduction in hair loss”. In addition, the kyphosis entry in the test on C57BL/6J mice (relative to control mice, Cohort 1, FIG. 22) is on record as “reduction in kyphosis”. The tremors result with C57BL/6J mice (relative to control mice, Cohort 1, FIG. 23) is given as “reduction in tremors”. In addition, the “coat graying / grey hair” value with C57BL/6J mice (vs placebo/control mice, Cohort 1, FIG. 11, 19, 20) is “dramatically reduced; also recorded: less grey hair than the control mouse; also recorded: less gray hair”. Also, the “levels of inflammatory cytokines” value with inflammatory cytokines is on record as “prevents, or in some cases even reverses, the increase in levels of inflammatory cytokines”.

As for `CCCCCCCCCCCCCCCC(=O)OC/C=C(C)/C=C/C=C(C)/C=C/C1=C(C)CCCC1(C)C` [RP, retinyl palmitate], in the test on C57BL/6J mice (female mice), the “alopecia scores (hair loss)” value was “neither Ca-AKG nor RP had significant effects on their own” and the piloerection entry is “Neither compound alone had an effect”.

`C=C1CC[C@H](O)C/C1=C/C=C1\CCC[C@]2(C)[C@@H]([C@H](C)CCCC(C)C)CC[C@@H]12` [vitamin D3]: in the test on C57BL/6J mice (female mice), the “alopecia scores (hair loss)” value was “sufficient to reduce alopecia”. Moreover, in the test on C57BL/6J mice (female mice, four months treatment starting at 18 months of age, FIG. 36), the “fur color (coat color)” value was “younger coat color”. Besides, the “frailty scores (frailty index)” value was “lower frailty” in the test on C57BL/6J mice (female mice, two months of treatment, Cohort 2, FIG. 10A) and “no significant reduction in frailty” in the test with C57BL/6J mice (male mice, 2 months of treatment, Cohort 2, FIG. 10C). For the same compound, the kyphosis index result with C57BL/6J mice (male and female mice combined, two months treatment starting at 18 months of age, FIG. 34) is on record as “reduce the kyphosis index significantly”.
